Measurements from ChEMBL document CHEMBL5584293, “Discovery and evaluation of novel spiroheterocyclic protective agents via a SIRT1 upregulation mechanism in cisplatin-induced premature ovarian failure” (Bioorg Med Chem, 2024).
Activity calls are given as the source filed them. No cut-off for these calls is given here.

Tests used:
KGN = test: Protective effect against cisplatin-induced injury in human KGN cells assessed as cell survival at 5 uM incubated for 48 hrs by MTT assay; assay type: functional, cell-based
[1] = Cytotoxicity against human PDL cells assessed as cell viability at 50 uM incubated for 48 hrs by MTT assay; assay type: toxicity, cell-based
NRK = test: Cytotoxicity against rat NRK cells assessed as cell viability at 50 uM incubated for 48 hrs by MTT assay; assay type: toxicity, cell-based
[2] = Cytotoxicity against human MIHA cells assessed as cell viability at 50 uM incubated for 48 hrs by MTT assay; assay type: toxicity, cell-based

SMILES | Activity (KGN) | other results
CCOc1ccc(/C=C2\CCC[C@@]3(C2=O)[C@@H](c2ccc(OCC)cc2)C(C)N[C@@]32C(=O)c3cccc4cccc2c34)cc1 (stereo partly specified) | inactive | –
CN1C[C@H](c2ccccc2)[C@]2(CN(C(=O)OC(C)(C)C)C/C(=C\c3ccccc3)C2=O)[C@]12C(=O)Nc1ccc(Cl)cc12 | – | Activity [1]: Non-Toxic; Activity (NRK): Non-Toxic; Activity [2]: Non-Toxic
CC1N[C@@]2(C(=O)c3cccc4cccc2c34)[C@@]2(CCC/C(=C\c3cccc(O)c3)C2=O)[C@H]1c1cccc(O)c1 (stereo partly specified) | inactive | –
CN1C[C@H](c2ccccc2)[C@]2(COC/C(=C\c3ccccc3)C2=O)[C@]12C(=O)Nc1ccc(Cl)cc12 | – | Activity [1]: Non-Toxic; Activity (NRK): Non-Toxic; Activity [2]: Non-Toxic
O=C1c2cccc3cccc(c23)[C@]12N1CCC(O)C1[C@H](c1ccccc1)[C@]21CCC/C(=C\c2ccccc2)C1=O (stereo partly specified) | Active | –
CCC(C)C1N[C@@]2(C(=O)c3cccc4cccc2c34)[C@@]2(CCC/C(=C\c3ccccc3)C2=O)[C@H]1c1ccccc1 (stereo partly specified) | inactive | –
CC(O)C1N[C@@]2(C(=O)c3cccc4cccc2c34)[C@@]2(CCC/C(=C\c3ccccc3)C2=O)[C@H]1c1ccccc1 (stereo partly specified) | Active | –
O=C1c2cccc3cccc(c23)[C@]12NC(Cc1ccc(O)cc1)[C@H](c1ccccc1)[C@]21CCC/C(=C\c2ccccc2)C1=O (stereo partly specified) | inactive | –
COc1ccc(/C=C2\CCC[C@@]3(C2=O)[C@@H](c2ccc(OC)cc2OC)C(C)N[C@@]32C(=O)c3cccc4cccc2c34)c(OC)c1 (stereo partly specified) | inactive | –
CC1N[C@@]2(C(=O)c3cccc4cccc2c34)[C@@]2(CCC/C(=C\c3ccccc3C(F)(F)F)C2=O)[C@H]1c1ccccc1C(F)(F)F (stereo partly specified) | inactive | –
N=C(N)NCCCC1N[C@@]2(C(=O)c3cccc4cccc2c34)[C@@]2(CCC/C(=C\c3ccccc3)C2=O)[C@H]1c1ccccc1 (stereo partly specified) | inactive | –
CN1C[C@H](c2ccccc2)[C@]2(CCC/C(=C\c3ccccc3)C2=O)[C@]12C(=O)Nc1ccc(F)cc12 | – | Activity [1]: Non-Toxic; Activity (NRK): Non-Toxic; Activity [2]: Non-Toxic
COc1cc(/C=C2\CCC[C@@]3(C2=O)[C@@H](c2ccc(O)c(OC)c2)C(C)N[C@@]32C(=O)c3cccc4cccc2c34)ccc1O (stereo partly specified) | inactive | –
CN1C[C@H](c2ccccc2)C2(CN(C(=O)OC(C)(C)C)C/C(=C\c3ccccc3)C2=O)[C@]12C(=O)c1cccc3cccc2c13 (single isomer, unassigned) | – | Activity [1]: Non-Toxic; Activity (NRK): Non-Toxic; Activity [2]: Non-Toxic
COc1ccc(/C=C2\CCC[C@@]3(C2=O)[C@@H](c2ccc(OC)c(O)c2)C(C)N[C@@]32C(=O)c3cccc4cccc2c34)cc1O (stereo partly specified) | inactive | –
CN1C[C@H](c2ccccc2)[C@]2(CN(C(=O)OC(C)(C)C)C/C(=C\c3ccccc3)C2=O)[C@]12C(=O)Nc1ccccc12 | – | Activity [1]: Non-Toxic; Activity (NRK): Non-Toxic; Activity [2]: Non-Toxic
CC1N[C@@]2(C(=O)c3cccc4cccc2c34)[C@@]2(CCC/C(=C\c3ccc(Cl)c(Br)c3)C2=O)[C@H]1c1ccc(Cl)c(Br)c1 (stereo partly specified) | inactive | –
CC1N[C@@]2(C(=O)c3cccc4cccc2c34)[C@@]2(CCC/C(=C\c3ccc(O)cc3)C2=O)[C@H]1c1ccc(O)cc1 (stereo partly specified) | inactive | –
CN1C[C@H](c2ccccc2)[C@]2(CN(C(=O)OC(C)(C)C)C/C(=C\c3ccccc3)C2=O)[C@]12C(=O)Nc1ccc(F)cc12 | – | Activity [1]: Non-Toxic; Activity (NRK): Non-Toxic; Activity [2]: Non-Toxic
CC(C)C1N[C@@]2(C(=O)c3cccc4cccc2c34)[C@@]2(CCC/C(=C\c3ccccc3)C2=O)[C@H]1c1ccccc1 (stereo partly specified) | inactive | –
Cc1ccc(/C=C2\CCC[C@@]3(C2=O)[C@@H](c2ccc(C)s2)C(C)N[C@@]32C(=O)c3cccc4cccc2c34)s1 (stereo partly specified) | Active | –
CC1N[C@@]2(C(=O)c3cccc4cccc2c34)[C@@]2(CCC/C(=C\c3ccc(Cl)c(Cl)c3)C2=O)[C@H]1c1ccc(Cl)c(Cl)c1 (stereo partly specified) | inactive | –

SMILES | Activity (KGN) | other results
CC1N[C@@]2(C(=O)c3cccc4cccc2c34)[C@@]2(CCC/C(=C\N3CCOCC3)C2=O)[C@H]1N1CCOCC1 (stereo partly specified) | Active | –
CC1N[C@@]2(C(=O)c3cccc4cccc2c34)[C@@]2(CCC/C(=C\c3ccc(Br)o3)C2=O)[C@H]1c1ccc(Br)o1 (stereo partly specified) | Active | –
NC(=O)CC1N[C@@]2(C(=O)c3cccc4cccc2c34)[C@@]2(CCC/C(=C\c3ccccc3)C2=O)[C@H]1c1ccccc1 (stereo partly specified) | Active | –
O=C(O)CCC1N[C@@]2(C(=O)c3cccc4cccc2c34)[C@@]2(CCC/C(=C\c3ccccc3)C2=O)[C@H]1c1ccccc1 (stereo partly specified) | inactive | –
O=C1c2cccc3cccc(c23)[C@]12NC(Cc1c[nH]c3ccccc13)[C@H](c1ccccc1)[C@]21CCC/C(=C\c2ccccc2)C1=O (stereo partly specified) | Active | –
CC1N[C@@]2(C(=O)c3cccc4cccc2c34)[C@@]2(CCC/C(=C\c3ccc(Br)cc3)C2=O)[C@H]1c1ccc(Br)cc1 (stereo partly specified) | Active | –
O=C1c2cccc3cccc(c23)[C@]12NC(CO)[C@H](c1ccccc1)[C@]21CCC/C(=C\c2ccccc2)C1=O (stereo partly specified) | Active | –
CC1N[C@@]2(C(=O)c3cccc4cccc2c34)[C@@]2(CCC/C(=C\c3ccc(O)c(O)c3)C2=O)[C@H]1c1ccc(O)c(O)c1 (stereo partly specified) | inactive | –
CC1N[C@@]2(C(=O)c3cccc4cccc2c34)[C@@]2(CCC/C(=C\c3ccc(Cl)cc3Cl)C2=O)[C@H]1c1ccc(Cl)cc1Cl (stereo partly specified) | inactive | –
CC1N[C@@]2(C(=O)c3cccc4cccc2c34)[C@@]2(CCC/C(=C\c3cc(Br)cs3)C2=O)[C@H]1c1cc(Br)cs1 (stereo partly specified) | Active | –
O=C1c2cccc3cccc(c23)[C@]12NC(Cc1ccccc1)[C@H](c1ccccc1)[C@]21CCC/C(=C\c2ccccc2)C1=O (stereo partly specified) | Active | –
CCOc1ccc(/C=C2\CCC[C@@]3(C2=O)[C@@H](c2ccc(OCC)c(OCC)c2)C(C)N[C@@]32C(=O)c3cccc4cccc2c34)cc1OCC (stereo partly specified) | inactive | –
CC1N[C@@]2(C(=O)c3cccc4cccc2c34)[C@@]2(CCC/C(=C\c3ccc4ccccc4c3)C2=O)[C@H]1c1ccc2ccccc2c1 (stereo partly specified) | Active | –
COc1ccccc1/C=C1\CCC[C@@]2(C1=O)[C@@H](c1ccccc1OC)C(C)N[C@@]21C(=O)c2cccc3cccc1c23 (stereo partly specified) | inactive | –
CC(C)CC1N[C@@]2(C(=O)c3cccc4cccc2c34)[C@@]2(CCC/C(=C\c3ccccc3)C2=O)[C@H]1c1ccccc1 (stereo partly specified) | inactive | –
CC1N[C@@]2(C(=O)c3cccc4cccc2c34)[C@@]2(CCC/C(=C\c3ccc(Cl)cc3)C2=O)[C@H]1c1ccc(Cl)cc1 (stereo partly specified) | Active | –
CC1N[C@@]2(C(=O)c3cccc4cccc2c34)[C@@]2(CCC/C(=C\c3ccccc3Br)C2=O)[C@H]1c1ccccc1Br (stereo partly specified) | Active | –
O=C1c2cccc3cccc(c23)[C@]12NC(Cc1c[nH]cn1)[C@H](c1ccccc1)[C@]21CCC/C(=C\c2ccccc2)C1=O (stereo partly specified) | inactive | –
CC1N[C@@]2(C(=O)c3cccc4cccc2c34)[C@@]2(CCC/C(=C\c3cc(F)cc(F)c3)C2=O)[C@H]1c1cc(F)cc(F)c1 (stereo partly specified) | inactive | –
CSCCC1N[C@@]2(C(=O)c3cccc4cccc2c34)[C@@]2(CCC/C(=C\c3ccccc3)C2=O)[C@H]1c1ccccc1 (stereo partly specified) | inactive | –
CC1N[C@@]2(C(=O)c3cccc4cccc2c34)[C@@]2(CCC/C(=C\c3ccccc3Cl)C2=O)[C@H]1c1ccccc1Cl (stereo partly specified) | Active | –
NC(=O)CCC1N[C@@]2(C(=O)c3cccc4cccc2c34)[C@@]2(CCC/C(=C\c3ccccc3)C2=O)[C@H]1c1ccccc1 (stereo partly specified) | inactive | –
